Results from ChEMBL document CHEMBL1158286, “Molluscicidal Triterpenoid Glycosides of Dialium guineense” (1996).

System: Biomphalaria glabrata
Experiment: Molluscicidal activity against Biomphalaria glabrata assessed as minimum concentration required to cause mortality measured after 24 hrs
Format: functional

Point of comparison: `CC1(C)CC[C@]2(C(=O)O)CC[C@]3(C)C(=CC[C@@H]4[C@@]5(C)CC[C@H](O[C@@H]6O[C@H](C(=O)O)[C@@H](O)[C@H](O[C@@H]7OC[C@@H](O)[C@H](O)[C@H]7O)[C@H]6O)C(C)(C)[C@@H]5CC[C@]43C)[C@@H]2C1`, Activity 4 ppm. Against it:
- C[C@@H]1O[C@@H](O[C@@H]2[C@@H](O)[C@H](O[C@H]3CC[C@]4(C)[C@H]5CC=C6[C@@H]7CC(C)(C)CC[C@]7(C(=O)O)CC[C@@]6(C)[C@]5(C)CC[C@H]4C3(C)C)O[C@H](C(=O)O)[C@H]2O)[C@H](O)[C@H](O)[C@H]1O — the same, 4 ppm
- CC1(C)CC[C@]2(C(=O)O)CC[C@]3(C)C(=CC[C@@H]4[C@@]5(C)CC[C@H](O[C@@H]6O[C@H](C(=O)O)[C@@H](O)[C@H](O)[C@H]6O)C(C)(C)[C@@H]5CC[C@]43C)[C@@H]2C1 — lower, 2 ppm
- CC1(C)CC[C@]2(C(=O)O)CC[C@]3(C)C(=CC[C@@H]4[C@@]5(C)CC[C@H](O)C(C)(C)[C@@H]5CC[C@]43C)[C@@H]2C1 [OLEANOLIC_ACID] — lower, 0 ppm

`CC1(C)CC[C@]2(C(=O)O)CC[C@]3(C)C(=CC[C@@H]4[C@@]5(C)CC[C@H](O[C@@H]6OC[C@@H](O)[C@H](O)[C@H]6O)C(C)(C)[C@@H]5CC[C@]43C)[C@@H]2C1` was tested, and the Activity was over 16 ppm.
